Like-named read-outs stand apart in the source and are kept apart here.
Experiments:
[1] = In vitro metabolism, liver microsomes; assay type: in vitro ADME, mouse
Procedure: Compounds were spiked into microsomal matrix prepared in 0.1 M pH 7.4 phosphate buffer containing magnesium chloride (final concentration of 3.3 mM), equilibrated for 5-10 min at 37°C. The reaction was initiated with the addition of freshly prepared solution of NADPH (final 1.3 mM). Control samples without co-factor were included for comparison. Aliquots of the reaction mixtures were taken periodically over 60 min and quenched with acetonitrile containing internal standards (metolazone and diazepam). Quenched samples were maintained on ice for approximately 20-30 min, centrifuged (for 5 min) and the supernatant was analyzed by LC-MS.
In vitro intrinsic clearance (CLint, μL/min/mg or μL/min/10^6 cells) values were calculated from the apparent first order degradation rate constant divided by the microsome concentration or the hepatocyte cell number (10^6 viable cells/mL). In vitro CLint values were then divided by the fraction unbound in the in vitro test system (to give CLint,u) and scaled to in vivo values (mL/min/kg) using published physiological scaling factors ([28]). Blood clearance in each species was then calculated using the well-stirred model of hepatic extraction (equation 2) where Q is the hepatic blood flow and fu,blood is calculated from fu,plasma/B:P: [2] PredictedCLblood=Q x fu,blood x CLint,u/Q+fu,blood x CLint,u
Blood clearance values were converted to plasma clearance by multiplying by the B:P.

[2] = Compartmental PK modelling and repeat-dose simulation; set-up: species or system mice; settings: for AUC: read-out: AUC24 ss
Procedure: To support pharmacokinetic/pharmacodynamic (PKPD) analysis, data in mice and hamsters were also analyzed by compartmental modeling using Phoenix WinNonlin (version 8.2; Certara, Princeton, NJ). For each dose level, an extravascular dosing, single compartment disposition model was fit to the combined Day 1/Day 5 repeat dose plasma data. The model was parameterized with a single volume term (V/F), and with first order absorption (K01) and elimination (K10) rate constants. Initial values for the parameter estimates were obtained by fitting of the model to the Day 1 data at the lowest dose level only, and the same initial values were used across the dose range. Experimental data used in model fitting were the mean concentration-time profiles and the average dose administered to each group. The weighting scheme (1/Y2 for mouse and 1/Y for hamster) was selected based on goodness of fit of the peak region of the experimental profiles. Parameter estimates obtained through fitting were used to simulate full repeat-dose plasma concentration-time profiles with both once-daily and twice-daily (dosing at […]) administration at each dose level and treatment duration used in the efficacy studies.

[3] = target: T1, OAT1 (Homo sapiens, UniProt Q4U2R8); assay: Drug transporter inhibition panel; assay type: in vitro ADME; settings: 1 and 10 μM
T1 construct: Eurofins
Source text: (§1) Listed values represent the percent change relative to the DMSO control activity. When an IC50 had to be determined, eight different concentrations were included. All values are the mean of assay readout duplicates.

[4] = target: BSEP (Homo sapiens, UniProt O95342); assay: Drug transporter inhibition panel; assay type: in vitro ADME; settings: 1 and 10 μM
Source text: as §1

[5] = target: T2, OCT1 (Homo sapiens, UniProt O15245); assay: Drug transporter inhibition panel; assay type: in vitro ADME; settings: 1 and 10 μM
T2 construct: Eurofins
Source text: as §1

[6] = target: T3, OATP1B3 (Homo sapiens, UniProt Q9NPD5); assay: Drug transporter inhibition panel; assay type: in vitro ADME
T3 construct: Eurofins
Source text: as §1

[7] = target: T4, OATP1B1 (Homo sapiens, UniProt Q9Y6L6); assay: Drug transporter inhibition panel; assay type: in vitro ADME
T4 construct: Eurofins
Source text: as §1

[8] = target: T5, OAT3 (Homo sapiens, UniProt Q8TCC7); assay: Drug transporter inhibition panel; assay type: in vitro ADME; settings: 1 and 10 μM
T5 construct: Eurofins
Source text: as §1

[9] = target: T6, MATE2-K (Homo sapiens, UniProt Q86VL8); assay: Drug transporter inhibition panel; assay type: in vitro ADME
T6 construct: Eurofins
Source text: as §1

[10] = target: T7, OCT2 (Homo sapiens, UniProt O15244); assay: Drug transporter inhibition panel; assay type: in vitro ADME; settings: 1 and 10 μM
T7 construct: Eurofins
Source text: as §1

[11] = target: BCRP (Homo sapiens, UniProt Q9UNQ0); assay: Drug transporter inhibition panel; assay type: in vitro ADME; settings: 1 and 10 μM
Source text: as §1

[12] = mice, 3.125 mg/kg bid, 10 days, simulated
[13] = mice, 12.5 mg/kg bid, 5 days, simulated
[14] = mice, 12.5 mg/kg qd, 5 days, simulated
[15] = mice, 25 mg/kg bid, 5 days, simulated
[16] = mice, 25 mg/kg qd, 5 days, simulated
[17] = mouse, plasma, po, 3.125 mg/kg, mice, 3.125 mg/kg bid, 10 days, simulated
[18] = mouse, plasma, po, 12.5 mg/kg, mice, 12.5 mg/kg bid, 5 days, simulated
[19] = mouse, plasma, po, 12.5 mg/kg, mice, 12.5 mg/kg qd, 5 days, simulated
[20] = mouse, plasma, po, 25 mg/kg, mice, 25 mg/kg qd, 5 days, simulated
[21] = mouse, plasma, po, Mice, 3.6 mg/kg, fitted
[22] = mouse, plasma, po, Mice, 7.1 mg/kg, fitted
[23] = mouse, plasma, po, Mice, 12.7 mg/kg, fitted
[24] = mouse, plasma, po, Mice, 25 mg/kg, fitted

T7 sequence (O15244 whole entry): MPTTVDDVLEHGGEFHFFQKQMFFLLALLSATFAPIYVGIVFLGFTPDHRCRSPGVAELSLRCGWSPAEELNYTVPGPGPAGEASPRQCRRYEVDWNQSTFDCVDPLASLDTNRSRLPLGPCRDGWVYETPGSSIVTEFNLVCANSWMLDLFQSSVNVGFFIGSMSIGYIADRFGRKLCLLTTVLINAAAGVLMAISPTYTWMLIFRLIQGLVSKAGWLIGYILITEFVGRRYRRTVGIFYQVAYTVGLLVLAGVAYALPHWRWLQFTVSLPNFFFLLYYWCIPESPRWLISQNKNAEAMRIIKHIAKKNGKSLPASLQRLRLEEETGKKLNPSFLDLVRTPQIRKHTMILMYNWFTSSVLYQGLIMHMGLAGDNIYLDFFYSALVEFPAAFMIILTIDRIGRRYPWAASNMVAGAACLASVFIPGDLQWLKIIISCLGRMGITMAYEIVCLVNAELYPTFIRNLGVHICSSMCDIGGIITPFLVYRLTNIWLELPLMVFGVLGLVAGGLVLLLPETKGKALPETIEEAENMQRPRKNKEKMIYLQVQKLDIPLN
Chain of BSEP (O95342 whole entry, species assumed): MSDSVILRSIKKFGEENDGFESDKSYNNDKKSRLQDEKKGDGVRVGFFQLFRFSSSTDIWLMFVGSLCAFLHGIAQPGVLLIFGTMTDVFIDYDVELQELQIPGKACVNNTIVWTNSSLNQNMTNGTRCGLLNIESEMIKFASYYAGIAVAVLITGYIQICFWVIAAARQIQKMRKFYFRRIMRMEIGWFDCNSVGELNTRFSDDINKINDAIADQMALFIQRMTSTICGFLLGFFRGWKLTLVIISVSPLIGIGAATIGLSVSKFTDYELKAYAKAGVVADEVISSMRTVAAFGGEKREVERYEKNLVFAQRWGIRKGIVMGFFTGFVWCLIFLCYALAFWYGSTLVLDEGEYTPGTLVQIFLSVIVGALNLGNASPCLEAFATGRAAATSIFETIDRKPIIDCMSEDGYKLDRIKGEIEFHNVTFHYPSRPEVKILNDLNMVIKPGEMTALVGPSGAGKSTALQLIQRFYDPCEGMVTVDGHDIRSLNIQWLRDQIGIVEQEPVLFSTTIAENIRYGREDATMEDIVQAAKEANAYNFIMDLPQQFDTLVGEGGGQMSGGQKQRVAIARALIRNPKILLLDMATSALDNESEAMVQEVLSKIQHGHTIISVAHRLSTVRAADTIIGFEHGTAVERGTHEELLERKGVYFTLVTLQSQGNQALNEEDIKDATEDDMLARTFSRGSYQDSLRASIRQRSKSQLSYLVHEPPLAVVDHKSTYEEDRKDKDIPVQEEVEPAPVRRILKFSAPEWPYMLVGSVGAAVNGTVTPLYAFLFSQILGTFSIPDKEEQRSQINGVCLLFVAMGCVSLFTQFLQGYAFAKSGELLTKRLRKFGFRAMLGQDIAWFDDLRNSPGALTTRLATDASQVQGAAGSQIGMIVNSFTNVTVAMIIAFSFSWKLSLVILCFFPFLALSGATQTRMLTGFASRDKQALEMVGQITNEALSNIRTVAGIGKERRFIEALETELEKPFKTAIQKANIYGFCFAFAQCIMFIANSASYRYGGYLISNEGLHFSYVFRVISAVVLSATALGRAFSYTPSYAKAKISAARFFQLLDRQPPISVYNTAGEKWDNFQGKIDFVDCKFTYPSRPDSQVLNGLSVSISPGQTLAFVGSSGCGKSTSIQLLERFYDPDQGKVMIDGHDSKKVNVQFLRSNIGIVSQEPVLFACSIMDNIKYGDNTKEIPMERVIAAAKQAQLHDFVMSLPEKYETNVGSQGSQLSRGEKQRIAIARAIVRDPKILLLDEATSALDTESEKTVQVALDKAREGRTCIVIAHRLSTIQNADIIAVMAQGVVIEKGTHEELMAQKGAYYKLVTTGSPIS
T1 sequence (Q4U2R8 whole entry): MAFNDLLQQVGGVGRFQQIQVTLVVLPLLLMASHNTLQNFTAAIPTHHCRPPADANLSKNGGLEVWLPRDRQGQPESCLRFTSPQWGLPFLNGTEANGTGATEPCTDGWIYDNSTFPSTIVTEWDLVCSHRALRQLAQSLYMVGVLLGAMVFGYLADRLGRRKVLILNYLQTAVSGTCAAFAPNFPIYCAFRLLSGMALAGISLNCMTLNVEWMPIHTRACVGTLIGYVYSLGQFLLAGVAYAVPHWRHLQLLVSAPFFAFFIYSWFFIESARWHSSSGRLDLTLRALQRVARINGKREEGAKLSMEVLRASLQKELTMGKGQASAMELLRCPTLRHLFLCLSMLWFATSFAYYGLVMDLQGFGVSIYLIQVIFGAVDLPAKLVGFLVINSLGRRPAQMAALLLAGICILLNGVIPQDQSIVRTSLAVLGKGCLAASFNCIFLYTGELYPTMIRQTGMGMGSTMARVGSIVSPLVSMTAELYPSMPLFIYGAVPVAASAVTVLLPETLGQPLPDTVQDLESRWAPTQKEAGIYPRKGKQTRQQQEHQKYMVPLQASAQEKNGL
Chain of BCRP (Q9UNQ0 whole entry, species assumed): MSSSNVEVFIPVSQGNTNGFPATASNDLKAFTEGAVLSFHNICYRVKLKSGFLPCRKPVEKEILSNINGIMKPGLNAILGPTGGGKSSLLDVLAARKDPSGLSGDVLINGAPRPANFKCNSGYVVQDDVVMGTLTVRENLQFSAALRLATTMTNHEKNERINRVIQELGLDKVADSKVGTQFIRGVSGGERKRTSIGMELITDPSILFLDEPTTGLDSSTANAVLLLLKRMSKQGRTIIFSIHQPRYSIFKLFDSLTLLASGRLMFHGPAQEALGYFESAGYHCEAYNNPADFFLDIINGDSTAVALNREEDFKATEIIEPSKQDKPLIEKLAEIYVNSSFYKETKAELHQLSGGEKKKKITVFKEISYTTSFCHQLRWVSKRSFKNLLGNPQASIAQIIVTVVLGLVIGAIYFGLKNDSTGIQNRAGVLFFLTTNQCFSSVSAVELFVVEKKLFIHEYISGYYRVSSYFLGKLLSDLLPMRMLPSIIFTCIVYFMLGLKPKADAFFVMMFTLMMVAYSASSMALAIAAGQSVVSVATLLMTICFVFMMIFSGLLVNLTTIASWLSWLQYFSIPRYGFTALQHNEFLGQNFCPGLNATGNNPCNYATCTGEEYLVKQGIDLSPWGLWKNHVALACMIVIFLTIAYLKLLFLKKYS
T2 sequence (O15245 whole entry): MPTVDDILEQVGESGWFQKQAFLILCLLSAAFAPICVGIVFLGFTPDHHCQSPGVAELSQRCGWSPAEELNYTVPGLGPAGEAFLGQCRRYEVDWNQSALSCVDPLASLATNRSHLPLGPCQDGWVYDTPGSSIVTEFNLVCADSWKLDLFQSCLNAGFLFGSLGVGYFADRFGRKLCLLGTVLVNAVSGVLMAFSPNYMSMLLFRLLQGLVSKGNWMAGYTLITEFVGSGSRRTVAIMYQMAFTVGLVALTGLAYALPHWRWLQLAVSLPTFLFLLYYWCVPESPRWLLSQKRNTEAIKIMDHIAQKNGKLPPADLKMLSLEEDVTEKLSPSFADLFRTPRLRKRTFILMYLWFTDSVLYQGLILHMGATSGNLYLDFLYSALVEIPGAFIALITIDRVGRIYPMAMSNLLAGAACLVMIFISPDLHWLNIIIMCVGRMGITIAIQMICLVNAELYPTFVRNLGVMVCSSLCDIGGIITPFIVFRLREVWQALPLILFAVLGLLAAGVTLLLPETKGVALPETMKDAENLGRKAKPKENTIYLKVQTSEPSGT
T5 sequence (Q8TCC7 whole entry): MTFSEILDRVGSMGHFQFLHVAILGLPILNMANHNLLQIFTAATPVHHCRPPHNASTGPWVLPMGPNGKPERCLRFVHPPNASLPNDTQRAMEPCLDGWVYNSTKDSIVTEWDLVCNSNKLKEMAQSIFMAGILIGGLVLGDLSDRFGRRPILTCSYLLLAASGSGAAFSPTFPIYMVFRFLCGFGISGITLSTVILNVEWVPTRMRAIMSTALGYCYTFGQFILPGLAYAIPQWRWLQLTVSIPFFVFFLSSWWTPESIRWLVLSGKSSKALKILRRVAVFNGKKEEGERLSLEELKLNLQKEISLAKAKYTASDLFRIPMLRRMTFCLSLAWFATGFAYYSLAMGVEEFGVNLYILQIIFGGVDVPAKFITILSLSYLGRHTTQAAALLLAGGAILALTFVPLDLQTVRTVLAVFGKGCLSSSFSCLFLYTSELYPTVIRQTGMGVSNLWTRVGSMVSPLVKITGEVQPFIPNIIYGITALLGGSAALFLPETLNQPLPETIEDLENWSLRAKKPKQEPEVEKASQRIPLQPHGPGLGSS
T3 sequence (Q9NPD5 whole entry): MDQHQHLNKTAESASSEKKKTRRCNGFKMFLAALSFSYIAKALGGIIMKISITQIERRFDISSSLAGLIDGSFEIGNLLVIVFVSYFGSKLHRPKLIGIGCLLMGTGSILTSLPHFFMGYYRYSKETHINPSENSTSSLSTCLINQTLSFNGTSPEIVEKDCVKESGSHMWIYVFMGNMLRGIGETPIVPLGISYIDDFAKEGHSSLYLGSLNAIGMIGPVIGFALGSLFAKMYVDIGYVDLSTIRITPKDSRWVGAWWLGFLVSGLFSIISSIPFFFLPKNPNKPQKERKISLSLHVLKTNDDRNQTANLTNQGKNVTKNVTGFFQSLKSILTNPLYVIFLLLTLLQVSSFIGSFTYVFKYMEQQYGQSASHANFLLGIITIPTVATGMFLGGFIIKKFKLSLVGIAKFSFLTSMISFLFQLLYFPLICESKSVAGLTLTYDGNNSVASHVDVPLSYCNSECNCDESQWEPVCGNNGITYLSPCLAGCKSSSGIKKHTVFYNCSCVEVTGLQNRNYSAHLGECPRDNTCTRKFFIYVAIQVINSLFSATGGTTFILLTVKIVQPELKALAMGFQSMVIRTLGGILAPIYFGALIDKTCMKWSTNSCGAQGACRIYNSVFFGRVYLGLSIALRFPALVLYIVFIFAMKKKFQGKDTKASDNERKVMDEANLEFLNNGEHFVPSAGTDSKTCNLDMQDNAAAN

Cc1[nH]c2nc(N)nc(C)c2c1-c1ccc(C#N)c2c1OCO2 [DNDI-6174]
Microsome predicted in vivo CLplasma ([1]; Mouse): 12 mL/min/kg
In vitro Microsome CLint ([1]; Mouse, 2 independent experiments): 13 ± 0.38 µL/min/mg
microsomal CLint at 0.5 µM ([1]; mouse, liver microsomes, pH 7.4, Mouse, 2 independent experiments, read-out: In vitro Microsome CLint): 17 ± 0.59 µL/min/mg
K01 ([2]; Mice, 3.6 mg/kg, fitted): 1.04 h⁻¹
K10 ([2]; Mice, 3.6 mg/kg, fitted): 0.270 h⁻¹
V/F ([2]; Mice, 3.6 mg/kg, fitted): 2.76 L/kg
K01 ([2]; Mice, 7.1 mg/kg, fitted): 0.833 h⁻¹
K10 ([2]; Mice, 7.1 mg/kg, fitted): 0.246 h⁻¹
V/F ([2]; Mice, 7.1 mg/kg, fitted): 1.95 L/kg
K01 ([2]; Mice, 12.7 mg/kg, fitted): 0.634 h⁻¹
K10 ([2]; Mice, 12.7 mg/kg, fitted): 0.213 h⁻¹
V/F ([2]; Mice, 12.7 mg/kg, fitted): 1.43 L/kg
K01 ([2]; Mice, 25 mg/kg, fitted): 3.00 h⁻¹
K10 ([2]; Mice, 25 mg/kg, fitted): 0.158 h⁻¹
V/F ([2]; Mice, 25 mg/kg, fitted): 2.40 L/kg
AUC24 ss (unbound) [2, 12]: 1010 ng·h/mL
Cav ss [2, 12]: 351 ng/mL
Cav ss (unbound) [2, 12]: 42 ng/mL
Cmax (unbound) [2, 12]: 98 ng/mL
Cmin [2, 12]: 23 ng/mL
Cmin (unbound) [2, 12]: 3 ng/mL
Cum AUC (unbound) [2, 12]: 10100 ng·h/mL
AUC24 ss [2, 13]: 82000 ng·h/mL
AUC24 ss (unbound) [2, 13]: 9840 ng·h/mL
Cav ss [2, 13]: 3420 ng/mL
Cav ss (unbound) [2, 13]: 410 ng/mL
Cmax (unbound) [2, 13]: 780 ng/mL
Cmin [2, 13]: 520 ng/mL
Cmin (unbound) [2, 13]: 62 ng/mL
Cum AUC [2, 13]: 410000 ng·h/mL
Cum AUC (unbound) [2, 13]: 49200 ng·h/mL
AUC24 ss (unbound) [2, 14]: 4920 ng·h/mL
Cav ss [2, 14]: 1710 ng/mL
Cav ss (unbound) [2, 14]: 205 ng/mL
Cmax (unbound) [2, 14]: 608 ng/mL
Cmin [2, 14]: 80 ng/mL
Cmin (unbound) [2, 14]: 10 ng/mL
Cum AUC (unbound) [2, 14]: 24600 ng·h/mL
AUC24 ss (unbound) [2, 15]: 15800 ng·h/mL
Cav ss [2, 15]: 5470 ng/mL
Cav ss (unbound) [2, 15]: 657 ng/mL
Cmax [2, 15]: 11700 ng/mL
Cmax (unbound) [2, 15]: 1410 ng/mL
Cmin [2, 15]: 1140 ng/mL
Cmin (unbound) [2, 15]: 137 ng/mL
Cum AUC [2, 15]: 657000 ng·h/mL
Cum AUC (unbound) [2, 15]: 78800 ng·h/mL
AUC24 ss (unbound) [2, 16]: 7880 ng·h/mL
Cav ss [2, 16]: 2740 ng/mL
Cav ss (unbound) [2, 16]: 328 ng/mL
Cmax (unbound) [2, 16]: 1080 ng/mL
Cmin [2, 16]: 251 ng/mL
Cmin (unbound) [2, 16]: 30 ng/mL
Cum AUC (unbound) [2, 16]: 39400 ng·h/mL
Cmax at 10 days [2, 17]: 820 ng/mL
AUC [2, 17]: 8410 ng·h/mL
AUC at 10 days ([2]; mouse, plasma, po, 3.125 mg/kg, mice, 3.125 mg/kg bid, 10 days, simulated, read-out: Cum AUC): 84100 ng·h/mL
Cmax ([2]; mouse, plasma, po, 3.6 mg/kg, Mice, 3.6 mg/kg, fitted, read-out: Cmax): 813 ng/mL
Cmax ([2]; mouse, plasma, po, 7.1 mg/kg, Mice, 7.1 mg/kg, fitted, read-out: Cmax): 2190 ng/mL
Cmax at 5 days [2, 18]: 6500 ng/mL
AUC [2, 18]: 82000 ng·h/mL
AUC at 5 days ([2]; mouse, plasma, po, 12.5 mg/kg, mice, 12.5 mg/kg bid, 5 days, simulated, read-out: Cum AUC): 410000 ng·h/mL
Cmax at 5 days [2, 19]: 5070 ng/mL
AUC [2, 19]: 41000 ng·h/mL
AUC at 5 days ([2]; mouse, plasma, po, 12.5 mg/kg, mice, 12.5 mg/kg qd, 5 days, simulated, read-out: Cum AUC): 205000 ng·h/mL
Cmax ([2]; mouse, plasma, po, 12.7 mg/kg, Mice, 12.7 mg/kg, fitted, read-out: Cmax): 5100 ng/mL
Cmax ([2]; mouse, plasma, po, 25 mg/kg, Mice, 25 mg/kg, fitted, read-out: Cmax): 8830 ng/mL
Cmax at 5 days ([2]; mouse, plasma, po, 25 mg/kg, mice, 25 mg/kg bid, 5 days, simulated): 11700 ng/mL
AUC at 5 days ([2]; mouse, plasma, po, 25 mg/kg, mice, 25 mg/kg bid, 5 days, simulated, read-out: Cum AUC): 657000 ng·h/mL
Cmax at 5 days [2, 20]: 9030 ng/mL
AUC [2, 20]: 65700 ng·h/mL
AUC at 5 days ([2]; mouse, plasma, po, 25 mg/kg, mice, 25 mg/kg qd, 5 days, simulated, read-out: Cum AUC): 328000 ng·h/mL
AUC(0-inf) [2, 21]: 4840 ng·h/mL
CL/F [2, 21]: 12.4 mL/min/kg
AUC(0-inf) [2, 22]: 14800 ng·h/mL
CL/F [2, 22]: 7.98 mL/min/kg
AUC(0-inf) [2, 23]: 41700 ng·h/mL
CL/F [2, 23]: 5.08 mL/min/kg
AUC(0-inf) [2, 24]: 65700 ng·h/mL
CL/F [2, 24]: 6.35 mL/min/kg
activity remaining [3]: > 50%
activity remaining [4]: > 50%
activity remaining [5]: > 50%
IC50 [6]: 16 µM
IC50 [7]: 22 µM
activity remaining [8]: > 50%
IC50 [9]: 0.88 µM
activity remaining [10]: > 50%
activity remaining [11]: > 50%

Source: PMC7615677 (Science translational medicine, 2023)
